The subject of one data set is myocardial infarction. The data set is described as follows: myocardial infarction by coronary artery ligation, echocardiography and histology. In kind it is in vivo, mice. The procedure: Because of thymosin β4's effects on survival and migration of cardiomyocytes cultured in vitro and phosphorylation of Akt, it was tested whether thymosin β4 might aid in cardiac repair in vivo after myocardial damage. Myocardial infarctions in fifty-eight adult mice were created by coronary artery ligation and treated half with systemic, intracardiac, or systemic plus intracardiac thymosin β4 immediately after ligation and the other half with PBS. Intracardiac injections were done with collagen (control) or collagen mixed with thymosin β4. All forty-five mice that survived two weeks later were interrogated for cardiac function by random-blind ultrasonagraphy at 2 and 4 weeks after infarction by multiple measurements of cardiac contraction. […] Control cardiac injections were performed with the same collagen vehicle making it unlikely that an endogenous reaction to the injection contributed to the cardiac recovery.
To determine the manner in which thymosin β4 improved cardiac function, multiple serial histologic sections of hearts treated with or without thymosin β4 were examined. […] TUNEL positive cells that were also myocytes were rare in the thymosin β4 group but abundant in the control hearts. […] Thus, the decreased scar volume and preserved function of thymosin β4 treated mice were likely due to early preservation of myocardium after infarction through thymosin β4's effects on survival of cardiomyocytes.
Embryonic or adult cardiac tissue was embedded in paraffin and sections used for immunohistochemistry. […] Adult hearts were sectioned at ten equivalent levels from the base of the heart to the apex. Serial sections were used for trichrome sections and reaction with sarcomeric a-actinin, c-kit, Sca-1, Abcg2, and BrdU antibodies and for TUNEL assay (Intergen Company # S7111).
Myocardial infarction was produced in fifty-eight male C57BL/6J mice at 16 weeks of age (25-30 g) by ligation of the left anterior descending coronary artery as previously described. Twenty-nine of the ligated mice received thymosin β4 treatment immediately following ligation and the remaining twenty-nine received PBS injections. Treatment was given intracardiac with thymosin β4 (200 ng in 10 ul collagen) or with 10 ul of collagen; intraperitoneally with thymosin β4 (150 μg in 300 μl PBS) or with […]; or by both intracardiac and intraperitoneal injections. Intraperitoneal injections were given every three days until mice were sacrificed. Doses were based on previous studies of thymosin β4 biodistribution. Hearts were removed, weighed and fixed for histologic sectioning. Additional mice were operated on in a similar fashion for studies 0.5, 1, 3, 6 and 11 days after ligation.
Echocardiograms to assess systolic function were performed using M-mode and 2-dimensional measurements as described previously. The measurements represented the average of six selected cardiac cycles from at least two separate scans performed in random-blind fashion with papillary muscles used as a point of reference for consistency in level of scan. End diastole was defined as the maximal left ventricle (LV) diastolic dimension and end systole was defined as the peak of posterior wall motion. Single outliers in each group were omitted for statistical analysis. Fractional shortening (FS), a surrogate of systolic function, was calculated from LV dimensions as follows: FS=EDD−ESD/EDD×100%. Ejection fraction (EF) was calculated from two-dimensional images. EDD, end diastolic dimension; ESD, end systolic dimension.
Scar volume was calculated using six sections through the heart of each mouse using Openlab 3.03 software (Improvision) similar to previously described. Percent area of collagen deposition was measured on each section in blinded fashion and averaged for each mouse.

Another data set relates to embryonic heart explants. The class given is cell-based. An excerpt: To test the effects of secreted thymosin β4 on cardiac cell migration, an embryonic heart explant system designed to assay cell migration and transformation events on a three-dimensional collagen gel was utilized. In this assay, explants of adjacent embryonic myocardium and endocardium from valve-forming regions were placed on a collagen gel with the endocardium adjacent to the collagen.
Outflow tract was dissected from E11.5 wild type mouse embryos and placed on collagen matrices as previously described. After 10 hours of attachment explants were incubated in 30 ng/300 μl thymosin β4 in PBS, PBS alone or thymosin β4 and 100 nM wortmanin. Cultures were carried out for 3-9 days at 37° C. 5% CO2 and fixed in 4% paraformaldehyde in PBS for 10 min at RT. Cells were counted for quantification of migration and distance using at least three separate explants under each condition for endothelial migration and eight separate explants for myocardial migration.
Paraformaldehyde-fixed explants were permeabilized for 10 min at RT with Permeabilize solution (10 mM PIPES pH6.8; 50 mMNaCl; 0.5% Triton X-100; 300 mM Sucrose; 3 mM MgCl2) and rinsed with PBS 2×5 min at RT. After a series of blocking and rinsing steps, detection antibodies were used and explants rinsed and incubated with Equilibration buffer (Anti-Fade kit) 10 min at room temperature. Explants were scooped to a glass microscope slide, covered, and examined by fluorescein microscopy. TUNEL assay was performed using ApopTag Plus Fluorescein In Situ Apoptosis detection kit (Intergen Company # S7111) as recommended.

[1] abbreviates: four weeks after infarction, versus control.

On to thymosin β4, for which the “cardiac dilation after infarction (EDD and ESD)” value with myocardial infarction (EDD and ESD significantly higher in control group) is “decreased cardiac dilation”. The “degree of improvement, systemic intraperitoneal versus local intracardiac administration” value with myocardial infarction (echocardiography) is on record as “not statistically different”. In the data set with myocardial infarction (four weeks after infarction, n=23, 95% confidence interval, p<0.0001, control 23.2), the “mean fractional shortening of left ventricle” value was 37.2+/−1.8%. Besides, in the data set with myocardial infarction (four weeks after infarction, n=23, 95% confidence interval, p<0.0001, control 28.2), the mean ejection fraction was 57.7+/−3.2%. In addition, in the data set on myocardial infarction (setting [1]), the “improvement in cardiac fractional shortening” value was “greater than 60%” and the “improvement in ejection fraction” value is reported as over 100%. Further, the scar volume entry in the data set with myocardial infarction (six levels of sections through left ventricle, subset of mice, p<0.05) was “significant reduction”. In addition, the “left ventricle fractional shortening” value in the data set on myocardial infarction (three days after infarction, intracardiac treatment, n=4, 95% confidence interval, p<0.02, controls 28.8) was 39.2+/−2.34%. In addition, in the data set on myocardial infarction (three days after infarction, intracardiac treatment, p<0.02, controls 44.7), the ejection fraction is recorded as 64.2+/−6.69%. Also, the “size of scar (trichrome stain)” value in the data set with myocardial infarction (three levels of section, all treated mice) is reported as “reduced”. Further, in the data set with myocardial infarction (twenty-four hours after ligation), the “cell death by TUNEL assay in cardiomyocytes” value is “striking decrease”. Also, the “cell death based on TUNEL assay compared to control cells” value with embryonic heart explants is given as “No significant difference”. The “number of migrating endothelial cells” value with embryonic heart explants (E11.5 explants, compared to PBS, p<0.01) was “increased number of migrating endothelial cells”. In addition, the “proliferative rate based on phosho-histone H3 immunostaining compared to control cells” value in the data set on embryonic heart explants (migrated cells of explants) was “No significant difference”. The “migration of myocardial cells away from the explant” value with embryonic heart explants (thymosin β4 added to primary explants on collagen gel) was “a large number of spontaneously beating, cardiac muscle actin-positive cells had migrated away from the explant”.

(Values after patent US20090169538A1, “Methods of Treating or Preventing Tissue Damage Caused by Increased Blood Flow” (REGENERX BIOPHARMACEUTICALS, INC., priority 2006, published 2009).)
